The values that follow come from PMC4277633 (Iranian Journal of Pharmaceutical Research : IJPR, 2015).

In brackets after ≈: the same amount, converted by molar mass. Counter-ions that a name gives are not always drawn. *1 amine or outer side, *2 acyl side, *3 side chain or, on linkers, in order; H or OH if unused. Where a SMILES comes first, the peptide text is derived from it. Bridges are numbered along the chain shown (N, C = ends). Roman numbers before positions name the chains, in order. [ ]: non-standard residue; d: D form. Actinocin(9to1) = Cc1c2oc3c(C)ccc(C(=O)[*:1])c3nc-2c(C(=O)[*:2])c(N)c1=O; NMeV = CN[C@H](C(=O)O)C(C)C; Sar = CNCC(=O)O

Data set [1] has as its system Human Umbilical Vein Endothelial (HUVEC) cell line. Briefly: cells. As to conditions: 24 h, read-out: MTT IC 50.
The subject of data set [2] is Bacillus Calmette–Guérin (BCG) (1173P2). Briefly: organism not typed. Type of data set: cell-based, Mycobacterium bovis.
Data set [3] concerns M. tuberculosis. As to conditions: cited from earlier work; for activity against mychobacterium tuberculosis: both active and persistent form.
Data set [4] has as its system Human Umbilical Vein Endothelial (HUVEC) cell line.
The test system of data set [5] is pantothenate synthetase (PanC, Rv3602c). The conditions noted are these: HTS hits; cited from earlier work.
The mark [6] stands for this setting: 48 h, read-out: MIC 48 h, BCG, alamar blue, colour read after 48 h reincubation.
The mark [7] stands for this setting: 72 h, read-out: BCG MIC, Table 4, same values as 72 h reading.
The mark [8] stands for this setting: 72 h, read-out: MIC 72 h, BCG, alamar blue, colour read after 72 h reincubation.
Where [9] appears, read: 72 h, read-out: MIC, Mycobacterium bovis BCG, corresponds to 72 h values.

Consider `Nc1ccccc1` [Compound 1a], for which the IC50 in data set [1] amounted to 1040 µg/mL (≈ 11100 µM). Further, the MIC in data set [2] (setting [6]) is 500 µg/mL (≈ 5370 µM); in data set [2] (setting [7]), 250 µg/mL (≈ 2680 µM); in data set [2] (setting [8]), 250 µg/mL (≈ 2680 µM).

For the molecule `N#Cc1ccccc1N` [Compound 1b], the IC50 in data set [1] came to 908 µg/mL (≈ 7680 µM). The MIC in data set [2] (setting [6]) was 500 µg/mL (≈ 4230 µM); in data set [2] (setting [7]), 93.8 µg/mL (≈ 794 µM); in data set [2] (setting [8]), 93.8 µg/mL (≈ 794 µM).

On to `c1ccc2[nH]ccc2c1` [Compound 1c, indole], for which the IC50 in data set [1] was determined as 573 µg/mL (≈ 4890 µM). The “tuberculostatic effect” value in data set [3] is reported as “comparable with Isoniazid”. In addition, the MIC in data set [2] (setting [6]) was found to be 125 µg/mL (≈ 1070 µM); in data set [2] (setting [7]), 46.9 µg/mL (≈ 400 µM); in data set [2] (setting [8]), 46.9 µg/mL (≈ 400 µM); in data set [2] (setting [9]), 46.9 µg/mL (≈ 400 µM). Also, the “selectivity indices (SI)” value in data set [4] is reported as at least 10.

On to `c1ccc2c(c1)CCN2` [Compound 1d, indoline], for which, in data set [1], the IC50 was 800 µg/mL (≈ 6710 µM). Also, the MIC amounted to 31.2 µg/mL (≈ 262 µM) in data set [2] (setting [6]), 7.81 µg/mL (≈ 65.5 µM) in data set [2] (setting [7]), 7.81 µg/mL (≈ 65.5 µM) in data set [2] (setting [8]) and 7.81 µg/mL (≈ 65.5 µM) in data set [2] (setting [9]).

Consider `Nc1ccc2c(c1)Cc1ccccc1-2` [Compound 1e, 2-fluorenamine], for which the IC50 in data set [1] worked out at 726 µg/mL (≈ 4010 µM). In addition, the MIC was 31.2 µg/mL (≈ 172 µM) in data set [2] (setting [6]), 11.7 µg/mL (≈ 64.7 µM) in data set [2] (setting [7]), 11.7 µg/mL (≈ 64.7 µM) in data set [2] (setting [8]) and 11.7 µg/mL (≈ 64.7 µM) in data set [2] (setting [9]). Moreover, the “selectivity indices (SI)” value in data set [4] is recorded as at least 10.

On to `Nc1cccc2c1C(=O)c1ccccc1C2=O` [Compound 1f, 1-aminoanthraquinone], for which, in data set [1], the IC50 was 14.2 µg/mL (≈ 63.5 µM). The MIC worked out at 188 µg/mL (≈ 840 µM) in data set [2] (setting [6]); 7.81 µg/mL (≈ 35 µM) in data set [2] (setting [7]); 7.81 µg/mL (≈ 35 µM) in data set [2] (setting [8]); 7.8 µg/mL (≈ 34.9 µM) in data set [2] (setting [9]); 7.81 µg/mL (≈ 35 µM) in data set [2] (Mycobacterium bovis BCG, corresponds to 72 h values). Further, the “cytotoxicity in HUVEC cell line” value in data set [4] was “not in acceptable range”.

Turning to `Nc1ccc(Nc2ccccc2)c2c1C(=O)c1ccccc1C2=O` [Compound 1g, 1-amino-4-anilino-9,10-anthraquinone], the IC50 in data set [1] amounted to 344 µg/mL (≈ 1100 µM). In addition, the MIC is 7.81 µg/mL (≈ 24.8 µM) in data set [2] (setting [6]), under 3.9 µg/mL in data set [2] (setting [7]), under 3.9 µg/mL in data set [2] (setting [8]) and under 3.9 µg/mL in data set [2] (setting [9]). In data set [4], the “selectivity indices (SI)” value is at least 10.

As for `O=C1c2ccccc2C(=O)N1CCO` [Compound 1h, N-(2-Hydroxyethyl)-phthalimide], the IC50 in data set [1] turned out to be 842 µg/mL (≈ 4400 µM). For the same molecule, the MIC in data set [2] (setting [6]), in data set [2] (setting [7]) and in data set [2] (setting [8]) was 500 µg/mL (≈ 2620 µM) in each case. Besides, the “antimycobacterial activity” value in data set [2] (BCG) is on record as “did not show good activity”.

In the case of `NCCCn1ccnc1` [Compound 1i], the IC50 in data set [1] was found to be 441 µg/mL (≈ 3520 µM). For the same molecule, the values for the MIC in data set [2] (setting [6]), in data set [2] (setting [7]) and in data set [2] (setting [8]) were 250 µg/mL (≈ 2000 µM), 125 µg/mL (≈ 999 µM) and 125 µg/mL (≈ 999 µM), respectively.

As to `O=C(O)/C=C/c1cnc[nH]1` [Compound 1j], the IC50 in data set [1] is 1190 µg/mL (≈ 8590 µM). Moreover, the MIC in data set [2] (setting [6]), in data set [2] (setting [7]) and in data set [2] (setting [8]) was 500 µg/mL (≈ 3620 µM) in each case. Besides, the “antimycobacterial activity” value in data set [2] (BCG) was “no activity”.

Consider `Cc1cc(C(=O)O)no1` [Compound 2a, 5-methylisoxazole-3-carboxylic acid], for which, in data set [1], the IC50 was 1090 µg/mL (≈ 8600 µM). In addition, the results for the MIC in data set [2] (setting [6]), in data set [2] (setting [7]) and in data set [2] (setting [8]) were 500 µg/mL (≈ 3930 µM), 125 µg/mL (≈ 983 µM) and 125 µg/mL (≈ 983 µM), respectively. Moreover, the “antimycobacterial activity” value in data set [2] (BCG) is on record as “no antimycobacterial activity”.

As for `O=C(O)c1cc2ccccc2oc1=O` [Compound 2b, coumarin-3-carboxylic acid], the IC50 in data set [1] worked out at 924 µg/mL (≈ 4860 µM). Besides, the MIC was found to be 125 µg/mL (≈ 657 µM) in data set [2] (setting [6]), 31.2 µg/mL (≈ 164 µM) in data set [2] (setting [7]), 31.2 µg/mL (≈ 164 µM) in data set [2] (setting [8]) and 31.2 µg/mL (≈ 164 µM) in data set [2] (setting [9]). The “selectivity indices (SI)” value in data set [4] is at least 10.

For the molecule `C[C@]1(COc2ccc(N3CCC(Oc4ccc(OC(F)(F)F)cc4)CC3)cc2)Cn2cc([N+](=O)[O-])nc2O1` [OPC-676833], the “activity against mychobacterium tuberculosis” value in data set [3] is “good in-vitro and in-vivo activity”.

Turning to `O=[N+]([O-])c1cn2c(n1)OC[C@@H](OCc1ccc(OC(F)(F)F)cc1)C2` [PA-8242], in data set [3], the “activity against mychobacterium tuberculosis” value is “good in-vitro and in-vivo activity”.

With `Cc1c2oc3c(C)ccc(C(=O)N[C@@H]4C(=O)N[C@H](C(C)C)C(=O)N5CCC[C@H]5C(=O)N(C)CC(=O)N(C)[C@@H](C(C)C)C(=O)O[C@@H]4C)c3nc-2c(C(=O)N[C@@H]2C(=O)N[C@H](C(C)C)C(=O)N3CCC[C@H]3C(=O)N(C)CC(=O)N(C)[C@@H](C(C)C)C(=O)O[C@@H]2C)c(N)c1=O` [actinomycin D] (I: T[dV]P[Sar][NMeV] / II: T[dV]P[Sar][NMeV]; ester I:1-I:C, II:1-II:C; linker I:N-II:N via Actinocin(9to1)), in data set [5], the “activity against pantothenate synthetase” value is “poor activity”.

As to `COc1cccc2c1C(=O)c1c(O)c3c(c(O)c1C2=O)C[C@@](O)(C(=O)CO)C[C@@H]3O[C@H]1C[C@H](N)[C@H](O)[C@H](C)O1` [doxorubicin, reference compound], in data set [1], the IC50 was 3.1 µg/mL (≈ 5.7 µM).

Regarding `CC[C@@H](CO)NCCN[C@@H](CC)CO` [ethambutol, Ethambutol, reference compound], the MIC in data set [2] (Bacillus, BCG, read-out: MIC of ethambutol, positive control, table footnote, reading time not given) came out at 3.12 µg/mL.

For the molecule `CCN(CC)CCOC(=O)C(Cc1cccc2ccccc12)CC1CCCO1` (stereo not shown) [nafronyl oxalate], the “activity against pantothenate synthetase” value in data set [5] is listed as “poor activity”.
